Among the test systems are HL-60(TB) leukemia; SK-MEL-5 melanoma; COLO 205 colon; ACHN renal; HOP-18 NSCLC; DMS 114 small cell lung; XF 498 CNS; UO-31 renal; DMS 273 small cell lung; M14 melanoma; DLD-1 colon; SNB-78 CNS; T-47D breast.
Assay in all cases: NCI tumour cell line growth inhibition, 48 h

Several values for one entry are separate records, joined by “and”; a condition that tells them apart may be missing. Equal entries are not always repeated.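 Dose response: 5 concentrations. Exposure: 48 h. Format: 96-well plates. Endpoint: linear interpolation; highest concentration if not reached. Here, GI50 denotes the concentration required for 50% inhibition of growth. TGI: total growth inhibition.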

Turning to `COC(=O)CCC(=O)CC(=O)C(=O)Nc1c(Cl)cc([N+](=O)[O-])cc1Cl`, the TGI is > 100 µM in the test on HL-60(TB) leukemia; > 100 µM with SK-MEL-5 melanoma; > 100 µM with COLO 205 colon; > 100 µM in the test with ACHN renal; > 100 µM in the test with HOP-18 NSCLC; 77.9 µM in the test with DMS 114 small cell lung. Further, the TGI with XF 498 CNS, with UO-31 renal, in the test on DMS 273 small cell lung, in the test on M14 melanoma, in the test on DLD-1 colon and in the test with SNB-78 CNS was > 100 µM in each case.
For `CCc1cccc(C(C)C)c1NC(=O)C(=O)C(CC(=O)Nc1ccc(Cl)c(Cl)c1)C(=O)OC` (stereo not given), the TGI with HL-60(TB) leukemia, with SK-MEL-5 melanoma, with COLO 205 colon, in the test on ACHN renal, with HOP-18 NSCLC and in the test with DMS 114 small cell lung was > 100 µM each time. The TGI with XF 498 CNS, in the test on UO-31 renal, in the test with DMS 273 small cell lung, with M14 melanoma, with DLD-1 colon and in the test with SNB-78 CNS was > 100 µM in each case.
As to `O=C(NP(=O)(N1CC1)N1CC1)c1cc(I)ccc1I`, the TGI in the test on HL-60(TB) leukemia was > 96.4 µM; in the test on SK-MEL-5 melanoma it was > 100 µM; in the test with COLO 205 colon, > 100 µM; in the test with ACHN renal, > 65.1 µM; with T-47D breast, > 100 µM; with HOP-18 NSCLC it was > 100 µM. Also, the TGI in the test with DMS 114 small cell lung was 99.2 µM; in the test on XF 498 CNS, > 100 µM; in the test on UO-31 renal it was > 100 µM; in the test with DMS 273 small cell lung it was > 100 µM; in the test with M14 melanoma it was > 100 µM; in the test with DLD-1 colon it was > 100 µM. Besides, the TGI in the test on SNB-78 CNS was > 100 µM.
Take `S=c1cc(S)sc2c1c(=S)sc1nc3ccccn3c(=S)c12`: the TGI was 97.3 µM in the test with HL-60(TB) leukemia; > 100 µM with SK-MEL-5 melanoma; > 100 µM in the test on ACHN renal; > 100 µM in the test on HOP-18 NSCLC; 40.1 µM with DMS 114 small cell lung; > 100 µM in the test on XF 498 CNS. Also, the TGI in the test on UO-31 renal, with DMS 273 small cell lung, in the test with M14 melanoma, in the test on DLD-1 colon and in the test on SNB-78 CNS was > 100 µM throughout.
With `O=C(CC1(O)C(=O)Nc2c(Cl)cc(Cl)cc21)c1cccc2ccccc12` (stereo not given), the TGI is 26.5 µM with HL-60(TB) leukemia; 28.4 µM in the test on SK-MEL-5 melanoma; 31.4 µM with COLO 205 colon; 30.8 µM in the test with ACHN renal; 32.2 µM in the test with HOP-18 NSCLC; 35.6 µM in the test with DMS 114 small cell lung. The TGI in the test with XF 498 CNS is 34.8 µM; in the test with DMS 273 small cell lung, 27.5 µM; in the test on M14 melanoma, 30.5 µM; in the test on DLD-1 colon, 33 µM; in the test on SNB-78 CNS, 46.6 µM.
For the molecule `CCc1cccc(C(C)C)c1N1C(=O)C(=O)C(c2nc3ccccc3s2)C(=O)C1=O`, the TGI with HL-60(TB) leukemia was 30.9 µM; in the test with SK-MEL-5 melanoma, > 50 µM; in the test with COLO 205 colon, > 50 µM; with ACHN renal, > 50 µM; with HOP-18 NSCLC, > 50 µM; with DMS 114 small cell lung, > 50 µM. Further, the TGI in the test on XF 498 CNS, in the test on UO-31 renal, with DMS 273 small cell lung, with M14 melanoma, with DLD-1 colon and in the test with SNB-78 CNS was > 50 µM throughout.
As to `CC(C)(C)c1cc2c3c(c1)C(C(F)(F)F)(C(F)(F)F)O[Te]3(C)OC2(C(F)(F)F)C(F)(F)F`, the TGI with HL-60(TB) leukemia, with COLO 205 colon, in the test with ACHN renal, with HOP-18 NSCLC, in the test with DMS 114 small cell lung and with XF 498 CNS was > 100 µM in each case. For the same molecule, the TGI in the test on UO-31 renal, in the test with DMS 273 small cell lung, with M14 melanoma, with DLD-1 colon and in the test on SNB-78 CNS was > 100 µM each time.
Regarding `COc1cc(OC)c(C2CC=Cc3c(OC)cc(OC)c(OC)c32)cc1OC` (stereo not given), the TGI with HL-60(TB) leukemia, in the test on SK-MEL-5 melanoma, in the test on COLO 205 colon, in the test with ACHN renal, in the test on HOP-18 NSCLC and with DMS 114 small cell lung was > 100 µM in each case. Also, the TGI in the test with XF 498 CNS, in the test on UO-31 renal, in the test on DMS 273 small cell lung, with M14 melanoma, in the test with DLD-1 colon and with SNB-78 CNS was > 100 µM each time.
For `CCCCCCCCCCCC1CCCC(C)N1` (stereo not given), the GI50 in the test on HL-60(TB) leukemia is 1150 nM; with SK-MEL-5 melanoma, 8.15 µM; in the test with COLO 205 colon, 1560 nM; with ACHN renal, 11.4 µM; with T-47D breast, 2160 nM; in the test with UO-31 renal, 3.29 µM. The GI50 in the test with M14 melanoma is 8.47 µM. Also, the TGI was 21.4 µM and 93.7 µM with SK-MEL-5 melanoma; 25.5 µM with ACHN renal; 12.8 µM in the test on T-47D breast; 169 µM in the test on HOP-18 NSCLC; 139 µM in the test on DMS 114 small cell lung; 95.3 µM with XF 498 CNS. The TGI in the test on UO-31 renal was 16.4 µM and 105 µM; with DMS 273 small cell lung, 136 µM; with M14 melanoma it was 31.7 µM; in the test on DLD-1 colon it was 83.4 µM; in the test on SNB-78 CNS, 174 µM.
In the case of `O=C(CCC(=O)C(C(=O)c1ccccc1)c1ccccc1)Nc1cccc(C(F)(F)F)c1` (stereo not given), the TGI in the test on HL-60(TB) leukemia, with COLO 205 colon, in the test with ACHN renal, in the test on HOP-18 NSCLC, with DMS 114 small cell lung and in the test on XF 498 CNS was > 100 µM in each case. Further, the TGI in the test with UO-31 renal, in the test on DMS 273 small cell lung, in the test with M14 melanoma, in the test on DLD-1 colon and with SNB-78 CNS was > 100 µM throughout.
Regarding `CC1(C)Cc2cc(C(=O)O)c3c(c2C1=O)COCC3`, the TGI in the test on HL-60(TB) leukemia, in the test on SK-MEL-5 melanoma, in the test on COLO 205 colon, in the test on ACHN renal, in the test with HOP-18 NSCLC and with DMS 114 small cell lung was > 100 µM throughout. The TGI in the test with XF 498 CNS, in the test on UO-31 renal, in the test on DMS 273 small cell lung, with M14 melanoma, with DLD-1 colon and in the test with SNB-78 CNS was > 100 µM throughout.

These data come from PubChem BioAssay (NCI).
